Measurements published in patent US9453014B2, “Cyclic amide derivatives as inhibitors of 11-β-hydroxysteroid dehydrogenase and uses thereof” (CONNEXIOS LIFE SCIENCES PVT. LTD., priority 2011, dated 2016).

molecular target: T1, human full length HSD11 β 1 (Homo sapiens, UniProt P28845); test: In Vitro HSD11β1 Inhibition Assay; format: cell-based; details: CHO cells transiently expressing human HSD11β1; 200 nM cortisone+500 uM NADPH overnight; cortisone to cortisol by LC/MS-MS; read-out: 11βHSD1 (IC50)
T1 construct: transient expression of human full length HSD11 β 1 expression vector; host or cells: CHO cells (transient transfection)
How it was run: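 CHO cells transiently transfected with human full-length HSD11β1 were re-seeded after 24 h and, 24 h later, incubated overnight with 200 nM cortisone plus 500 uM NADPH and inhibitor. Cortisone-to-cortisol conversion was measured by LC/MS-MS. IC50 from an 8-point log concentration–inhibition curve.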

T1 sequence (P28845 whole entry): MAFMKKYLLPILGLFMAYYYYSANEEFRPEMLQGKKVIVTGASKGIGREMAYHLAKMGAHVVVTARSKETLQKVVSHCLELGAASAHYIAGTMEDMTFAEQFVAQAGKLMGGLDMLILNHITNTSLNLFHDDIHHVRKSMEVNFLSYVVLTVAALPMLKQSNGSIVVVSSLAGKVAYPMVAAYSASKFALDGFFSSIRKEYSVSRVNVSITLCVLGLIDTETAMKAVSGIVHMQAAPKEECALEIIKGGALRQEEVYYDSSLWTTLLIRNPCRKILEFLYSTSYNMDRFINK

Q: Which IC50 does the source give for CC(CC(=O)N1CCCC2C(C(=O)O)CCCC21)c1c[nH]c2cccc(-c3ccc(F)cc3)c12 (centres unmarked) [Compound 253, 1-{3-[4-(4-fluorophenyl)-1H-indol-3-yl]butanoyl}decahydroquinoline-5-carboxylic acid] here?
A: The IC50 was under 100 nM.

Q: CC(CC(=O)N1C(C)CCC2C(C(=O)O)CCCC21)c1c[nH]c2cccc(-c3cccs3)c12 (centres unmarked) [Compound 233, 2-methyl-1-{3-[4-(thiophen-2-yl)-1H-indol-3-yl]butanoyl}decahydroquinoline-5-carboxylic acid] was tested. Which IC50 did it give?
A: Its IC50 is over 250 nM.

Q: With CCn1cc(C(C)CC(=O)N2CCCC3C(C(=O)O)CCCC32)c2c(C3CC3)cccc21 (centres unmarked) [Compound 210, 1-[3-(4-cyclopropyl-1-ethyl-1H-indol-3-yl)butanoyl]decahydroquinoline-5-carboxylic acid] as the compound, how does the IC50 read?
A: Its IC50 is 100 to 150 nM.

Q: CC(CC(=O)N1CCO[C@H]2CCCCC21)c1c[nH]c2cccc(F)c12 (single isomer, unassigned) [Example 140, 3-(4-fluoro-1H-indol-3-yl)-1-[cis-(4a,8a)-octahydro-4H-1,4-benzoxazin-4-yl]butan-1-one] was tested. Which IC50 did it give?
A: The IC50 was under 100 nM.

Q: How did the IC50 turn out when N#C/C(=C\c1c[nH]c2ccccc12)C(=O)N1CCCC2CCCCC21 (centres unmarked) [Compound 31, (2E)-3-(1H-indol-3-yl)-2-(octahydroquinolin-1(2H)-ylcarbonyl)prop-2-enenitrile] was run?
A: Its IC50 is over 250 nM.

Q: With CC(Oc1cn(C)c2ccccc12)C(=O)N1CCCC2CCCCC21 (centres unmarked) [Example 100, 2-[(1-methyl-1H-indol-3-yl)oxy]-1-(octahydroquinolin-1(2H)-yl)propan-1-one] as the compound, how does the IC50 read?
A: Its IC50 is over 250 nM.

Q: O=C(O)C1CCCC2C1CCCN2C(=O)CC(c1cccs1)c1c[nH]c2cccc(Cl)c12 (single isomer, unassigned) [Compound 218, 1-[3-(4-chloro-1H-indol-3-yl)-3-(thiophen-2-yl)propanoyl]decahydroquinoline-5-carboxylic acid] was tested. Which IC50 did it give?
A: Its IC50 is under 100 nM.

Q: With CC(CC(=O)N1CCCC2(CO)CCCCC12)c1c[nH]c2ncccc12 (centres unmarked) [Example 146, 1-[4a-(hydroxymethyl)octahydroquinolin-1(2H)-yl]-3-(1H-pyrrolo[2,3-b]pyridin-3-yl)butan-1-one] as the compound, how does the IC50 read?
A: Its IC50 is over 250 nM.

Q: For CC(C)C(CC(=O)N1CCC(C(=O)O)C2CCCCC21)c1c[nH]c2cccc(F)c12 (centres unmarked) [Example 179, 1-[3-(4-fluoro-1H-Indol-3-yl)-4-methylpentanoyl]decahydroquinoline-4-carboxylic acid], which IC50 is on record?
A: Its IC50 is over 250 nM.

Q: How did the IC50 turn out when CC(CC(=O)N1CCCC2C(C(=O)O)CCCC21)c1c[nH]c2cccc(-c3ccc(F)o3)c12 (single isomer, unassigned) [Compound 250, 1-{3-[4-(5-fluorofuran-2-yl)-1H-indol-3-yl]butanoyl}decahydroquinoline-5-carboxylic acid] was run?
A: Its IC50 is under 100 nM.

Q: With CC(CC(=O)N1CCC(C(=O)O)C2CCCCC21)c1c[nH]c2cccc(Cl)c12 (centres unmarked) [Example 158, 1-[3-(4-chloro-1H-indol-3-yl)butanoyl]decahydroquinoline-4-carboxylic acid] as the compound, how does the IC50 read?
A: The IC50 was over 250 nM.

Q: How did the IC50 turn out when CC12CCCCC1N(C(=O)CCc1c[nH]c3ccccc13)CCC2 (single isomer, unassigned) [Compound 55, 3-(1H-indol-3-yl)-1-(4a-methyloctahydroquinolin-1(2H)-yl)propan-1-one] was run?
A: The IC50 was under 100 nM.

Q: How did the IC50 turn out when N#CC(Cc1c[nH]c2ccccc12)C(=O)N1CCCC2CCCCC21 (centres unmarked) [Example 98, 2-(1H-indol-3-ylmethyl)-3-(octahydroquinolin-1(2H)-yl)-3-oxopropanenitrile] was run?
A: The IC50 was over 250 nM.

Q: How did the IC50 turn out when Cc1cccc2[nH]cc(CCC(=O)N3CCOC4CCCCC43)c12 (centres unmarked) [Compound 64, 3-(4-methyl-1H-indol-3-yl)-1-(octahydro-4H-1,4-benzoxazin-4-yl)propan-1-one] was run?
A: Its IC50 is 150 to 200 nM.

Q: With O=C(O)C1CCCC2C1CCCN2C(=O)CC(c1cccs1)c1c[nH]c2cccc(Cl)c12 (single isomer, unassigned) [Compound 219, 1-[3-(4-chloro-1H-indol-3-yl)-3-(thiophen-2-yl)propanoyl]decahydroquinoline-5-carboxylic acid] as the compound, how does the IC50 read?
A: The IC50 was over 250 nM.

Q: O=C(O)C1CCCC2C1CCCN2C(=O)CSc1c[nH]c2cccc(C3CC3)c12 (centres unmarked) [Compound 260, 1-{[(4-cyclopropyl-1H-indol-3-yl)sulfanyl]acetyl}decahydroquinoline-5-carboxylic acid] was tested. Which IC50 did it give?
A: Its IC50 is over 250 nM.

Q: Which IC50 does the source give for CC(CC(=O)N1CCC(=O)C2CCCCC21)c1c[nH]c2ccccc12 (centres unmarked) [Example 103, 1-[3-(1H-indol-3-yl)butanoyl]octahydroquinolin-4(1H)-one] here?
A: Its IC50 is over 250 nM.

Q: How did the IC50 turn out when O=C(CS(=O)(=O)c1c[nH]c2ccccc12)N1CCCC2CCCCC21 (centres unmarked) [Compound 57, 2-(1H-indol-3-ylsulfonyl)-1-(octahydroquinolin-1(2H)-yl)ethanone] was run?
A: The IC50 was over 250 nM.

Q: Which IC50 does the source give for CC(CC(=O)N1CCCC2CCCCC21)c1c[nH]c2ccccc12 (single isomer, unassigned) [Example 120, 3-(1H-indol-3-yl)-1-(octahydroquinolin-1(2H)-yl)butan-1-one] here?
A: Its IC50 is under 100 nM.

Q: For CC(CC(=O)N1CCC2CCCCC21)c1nc2ccccc2s1 (centres unmarked) [Example 142, 3-(1,3-benzothiazol-2-yl)-1-(octahydro-1H-indol-1-yl)butan-1-one], which IC50 is on record?
A: Its IC50 is under 100 nM.

Q: For Cc1cccc2[nH]cc(CCC(=O)N3CC(C)(C)OC4CCCCC43)c12 (centres unmarked) [Compound 68, 1-(2,2-dimethyloctahydro-4H-1,4-benzoxazin-4-yl)-3-(4-methyl-1H-indol-3-yl)propan-1-one], which IC50 is on record?
A: The IC50 was over 250 nM.

Q: O=C(CCc1c[nH]c2ccccc12)N1CCO[C@@H]2CCCCC21 (stereo partly drawn) [Compound 61, 3-(1H-indol-3-yl)-1-[(trans-4a,8a)-octahydro-4H-1,4-benzoxazin-4-yl]propan-1-one] was tested. Which IC50 did it give?
A: Its IC50 is over 250 nM.

Q: Cc1cccc2c1nnn2C(C)CC(=O)N1CCC(C(=O)O)C2CCCCC21 (centres unmarked) [Example 168, 1-[3-(4-methyl-1H-benzotriazol-1-yl)butanoyl]decahydroquinoline-4-carboxylic acid] was tested. Which IC50 did it give?
A: Its IC50 is over 250 nM.

Q: With CC(C)C(CC(=O)N1CCC(C(=O)O)C2CCCCC21)c1c[nH]c2cc(Cl)ccc12 (centres unmarked) [Example 185, 1-[3-(6-chloro-1H-indol-3-yl)-4-methylpentanoyl]decahydroquinoline-4-carboxylic acid] as the compound, how does the IC50 read?
A: The IC50 was 150 to 200 nM.

Q: How did the IC50 turn out when CC(CC(=O)N1CCCC2C(C(=O)O)CCCC21)c1c[nH]c2cccc(-c3ccccn3)c12 (centres unmarked) [Compound 238, 1-{3-[4-(pyridin-2-yl)-1H-Indol-3-yl]butanoyl}decahydroquinoline-5-carboxylic acid] was run?
A: The IC50 was over 250 nM.

Q: With O=C(O)C1CCCC2C1CCCN2C(=O)CC(c1ccccc1)c1c[nH]c2cccc(F)c12 (centres unmarked) [Example 188, 1-[3-(4-fluoro-1H-indol-3-yl)-3-phenylpropanoyl]decahydroquinoline-5-carboxylic acid] as the compound, how does the IC50 read?
A: The IC50 was under 100 nM.

Q: With Cc1cccc2c1c(CCC(=O)N1CCO[C@@H]3CCCC[C@H]31)cn2C (single isomer, unassigned) [Compound 62, 3-(1,4-dimethyl-1H-indol-3-yl)-1-[(trans-4a,8a)-octahydro-4H-1,4-benzoxazin-4-yl]propan-1-one] as the compound, how does the IC50 read?
A: Its IC50 is over 250 nM.

Q: With CC(CC(=O)N1CCC[C@H]2CCCC[C@@H]21)c1c[nH]c2cccc(Cl)c12 (stereo partly drawn) [Example 126, 3-(4-chloro-1H-indol-3-yl)-1-[trans-(4a,8a)-octahydroquinolin-1(2H)-yl]butan-1-one] as the compound, how does the IC50 read?
A: The IC50 was over 250 nM.

Q: CC(CC(=O)N1CCC[C@H]2[C@H](C(=O)O)CCC[C@@H]21)c1c[nH]c2cccc(C3CC3)c12 (single isomer, unassigned) [Compound 199, 1-[3-(4-cyclopropyl-1H-indol-3-yl)butanoyl]decahydroquinoline-5-carboxylic acid] was tested. Which IC50 did it give?
A: Its IC50 is under 100 nM.

Q: With O=C(Cc1c[nH]c2ccccc12)N1CCCC2CCCCC21 (centres unmarked) [Compound 9, 2-(1H-indol-3-yl)-1-(octahydroquinolin-1(2H)-yl)ethanone] as the compound, how does the IC50 read?
A: The IC50 was 200 to 250 nM.

Q: How did the IC50 turn out when CC(C)C(CC(=O)N1CCCC2CCCCC21)c1c[nH]c2cccc(F)c12 (centres unmarked) [Example 111, 3-(4-fluoro-1H-indol-3-yl)-4-methyl-1-(octahydroquinolin-1(2H)-yl)pentan-1-one] was run?
A: The IC50 was under 100 nM.

Q: For CC(CC(=O)N1CCCC2CCCCC21)c1c[nH]c2cccc(N3CCC(C(=O)O)CC3)c12 (centres unmarked) [Compound 202, 1-{3-[4-(octahydroquinolin-1(2H)-yl)-4-oxobutan-2-yl]-1H-indol-4-yl}piperidine-4-carboxylic acid], which IC50 is on record?
A: The IC50 was over 250 nM.

Q: For Cn1cc(CCC(=O)N2CCCC3CCCCC32)c2cc(O)ccc21 (centres unmarked) [Compound 24, 3-(5-hydroxy-1-methyl-1H-indol-3-yl)-1-(octahydroquinolin-1(2H)-yl)propan-1-one], which IC50 is on record?
A: Its IC50 is over 250 nM.

Q: With O=C(O)C1CCN(C(=O)CC(c2ccccc2)c2c[nH]c3cccc(F)c23)C2CCCCC12 (single isomer, unassigned) [Example 162, 1-[3-(4-fluoro-1H-indol-3-yl)-3-phenylpropanoyl]decahydroquinoline-4-carboxylic acid] as the compound, how does the IC50 read?
A: Its IC50 is over 250 nM.

Q: For CC(CC(=O)N1CCCC2C(C(=O)O)CCCC21)c1c(C#N)[nH]c2cccc(C3CC3)c12 (centres unmarked) [Compound 252, 1-[3-(2-cyano-4-cyclopropyl-1H-indol-3-yl)butanoyl]decahydroquinoline-5-carboxylic acid], which IC50 is on record?
A: The IC50 was over 250 nM.

Q: Cc1cccc2c1c(CCC(=O)N1CCCC3CCCCC31)cn2C1CC1 (centres unmarked) [Compound 28, 3-(1-cyclopropyl-4-methyl-1H-indol-3-yl)-1-(octahydroquinolin-1(2H) -yl)propan-1-one] was tested. Which IC50 did it give?
A: Its IC50 is 100 to 150 nM.

Q: How did the IC50 turn out when Cn1cc(CCC(=O)N2CCCC3CCCCC32)c2cccnc21 (centres unmarked) [Example 87, 3-(1-methyl-1H-pyrrolo[2,3-b]pyridin-3-yl)-1-(octahydroquinolin-1 (2H)-yl)propan-1-one] was run?
A: Its IC50 is under 100 nM.

Q: How did the IC50 turn out when O=C(CCc1c[nH]c2ccccc12)N1CCOC2CCCCC21 (centres unmarked) [Compound 67, 3-(1H-indol-3-yl)-1-(octahydro-4H-1,4-benzoxazin-4-yl)propan-1-one] was run?
A: Its IC50 is over 250 nM.
